Experimental findings from patent US20260234124A1, “Substituted Pyrazolyl-Pyridinyl Compounds as Ligand Directed Degraders of IRAK3” (Celgene Corporation, priority 2022, published 2026) are described below.

The target in the assay is T1, IRAK3-ePL (Homo sapiens, UniProt Q9Y616).
T1 construct: expressed in transfected cells; host or cells: 293T CRBN OE/GSPT1 G575N KI cells, lentiviral transduction, puromycin selection
Put plainly: IRAK3-ePL overexpressing degradation assay. It is filed as cell-based. Particulars: IRAK3-ePL Lenti-X 293T CRBN/GSPT1 G575N cells, overnight incubation, top dose 10 μM; for Dmax: HEK-293T, maximum percentage loss of target protein; for DC50: read-out: IRAK3 ePL degradation EC50. On the procedure: Example B1. IRAK3-ePL Overexpressing Degradation Assay
Stable cell lines were generated by the following protocol. 3×10^5 Lenti-X 293T cells (Clonetech) were plated in 0.8 mL of media in a 12-well plate and incubated overnight at 37° C./5% CO2. Packaging plasmid (0.4 μg, pMD), envelope plasmid (0.4 μg, pSP), and lentiviral transfer IRAK3-ePL plasmid (0.8 μg, IRAK3 sequence NM_007199.3) were mixed in 0.1 mL of Opti-MEM and incubated for 5 min. Simultaneously, 2.4 μL of Lipofectamine 2000 (Invitrogen) was added to 0.1 mL of Opti-MEM (Gibco) and incubated for 5 min. The plasmid DNA and lipofectamine were combined and the mixture was allowed to incubate for 20 min. DNA:Lipofectamine Opti-MEM mixtures were then added to previously plated cells dropwise and the cells were incubated for ~16 h at 37° C./5% CO2. Following incubation, the media was removed and 1.2 mL of fresh media was added per well. Lenti-X 293T cells were incubated for ~30 h at 37° C./5% CO2. […] Following incubation, media was removed from the Lenti-X 293T wells and passed through a […]. Part of the viral supernatant was used to transduce cells and the rest was stored at −80° C. Viruses were then added individually (0.5 mL virus) to each well of the 293T^CRBN OE/GSPT1 G575N KI cells, followed by addition of polybrene (10 mg/mL Millipore) to each well at a final concentration of 5.0 μg/mL. Cells were incubated for ~24 h at 37° C./5% CO2. After aspirating media off plates, cells were washed with DPBS, trypsinized and plated in a 10 cm dish in 15 mL of media and 1 μg/mL puromycin. Following incubation of cells for ~72 h at 37° C./5% CO2, media was aspirated off plates, and cells were washed with DPBS and trypsinized. The cells were plated in a 15 cm dish in 40 mL of media with 1.0 μg/mL Puromycin (Gibco) and incubated for ~72 h at 37° C./5% CO2. Following incubation, media was removed and cells were washed with DPBS and trypsinized. The majority of cells were resuspended in Invitrogen freezing media and stored away (~6-8×10^6 cells/vial).
IRAK3-ePL cellular dose response curve degradation assays were performed by the following protocol. Compounds to be tested were dispensed into a white 384-well tissue-culture treated plate using an acoustic liquid handler. Dilutions were prepared based on a 25 μL assay volume in duplicate 10 point 3-fold serial dilutions starting with a 10 μM dose. Negative control wells were included, which only contain 0.2% DMSO to calculate 100% signal. Positive control wells containing 30 μM Ataluren (luciferase inhibitor) were included to calculate the background signal level. All wells were backfilled to a final DMSO concentration of 0.2% to ensure DMSO uniformity across wells. IRAK3-ePL expressing cells (IRAK3-ePL Lenti-X 293T^CRBN/GSPT1 G575N) were washed, trypsinized, counted, and resuspended in fresh DMEM (Gibco) to give a cell concentration of 200,000 cells/mL. 25 μL of cells (5,000 cells/well) were dispensed into the wells of the 384-well plate prespotted with compounds in the previous step and incubated overnight at 37° C./5% CO2. Following incubation, the 384-well plate was taken out of the incubator and left at room temperature for 30 min. InCELL hunter reagent was prepared according to manufacturer's instructions (EA reagent, lysis buffer, and substrate reagent in a 1:1:4 ratio, Cat #96-0002, DiscoverX), which was added to the 384-well plate 25 μL per well. Following the incubation of the plate for 1 h at room temperature, the luminescence signal was read using a ViewLux plate reader. Data was processed and analyzed in ActivityBase software. In short, the average luminescence values of the positive control wells were subtracted from the rest of the wells for background correction, and all luminescence values were normalized to the DMSO control wells. The average value of the DMSO control wells was set to equal 100% of the relative IRAK3-ePL protein levels. […]

Structures are written as SMILES.

For the molecule `C[C@@H](Oc1cc(-c2cnn(C3CCN(C4CCC5(CC4)CCN(C(=O)c4cccc(NC6CCC(=O)NC6=O)c4)CC5)CC3)c2)cnc1N)c1c(Cl)ccc(F)c1Cl` (stereo partly drawn) [Compound 22, 3-((3-(9-(4-(4-(6-Amino-5-((R)-1-(2,6-dichloro-3-fluorophenyl)ethoxy)pyridin-3-yl)-1H-pyrazol-1-yl)piperidin-1-yl)-3-azaspiro[5.5]undecane-3-carbonyl)phenyl)amino)piperidine-2,6-dione], the Dmax was determined as 78% and the DC50 turned out to be 0.066 µM.

For the molecule `C[C@@H](Oc1cc(-c2cnn(C3CCN(CCOCCOCCOCCOCCNC(=O)COc4cccc5c4C(=O)N(C4CCC(=O)NC4=O)C5=O)CC3)c2)cnc1N)c1c(Cl)ccc(F)c1Cl` (stereo partly drawn) [Compound 12, N-(14-(4-(4-(6-amino-5-((R)-1-(2,6-dichloro-3-fluorophenyl)ethoxy)pyridin-3-yl)-1H-pyrazol-1-yl)piperidin-1-yl)-3,6,9,12-tetraoxatetradecyl)-2-((2-(2,6-dioxopiperidin-3-yl)-1,3-dioxoisoindolin-4-yl)oxy)acetamide], the Dmax was determined as 30% and the DC50 is above 10 µM.

With `C[C@@H](Oc1cc(-c2cnn(C3CCN(CCOCCOCCNC(=O)COc4cccc5c4C(=O)N(C4CCC(=O)NC4=O)C5=O)CC3)c2)cnc1N)c1c(Cl)ccc(F)c1Cl` (stereo partly drawn) [Compound 10, N-(2-(2-(2-(4-(4-(6-amino-5-((R)-1-(2,6-dichloro-3-fluorophenyl)ethoxy)pyridin-3-yl)-1H-pyrazol-1-yl)piperidin-1-yl)ethoxy)ethoxy)ethyl)-2-((2-(2,6-dioxopiperidin-3-yl)-1,3-dioxoisoindolin-4-yl)oxy)acetamide], the Dmax stood at 22% and the DC50 is above 10 µM.

Turning to `C[C@@H](Oc1cc(-c2cnn(C3CCN(CCOCCOCCOCCOCCNC(=O)COc4ccc5c(c4)C(=O)N(C4CCC(=O)NC4=O)C5=O)CC3)c2)cnc1N)c1c(Cl)ccc(F)c1Cl` (stereo partly drawn) [Compound 17, N-(14-(4-(4-(6-amino-5-((R)-1-(2,6-dichloro-3-fluorophenyl)ethoxy)pyridin-3-yl)-1H-pyrazol-1-yl)piperidin-1-yl)-3,6,9,12-tetraoxatetradecyl)-2-((2-(2,6-dioxopiperidin-3-yl)-1,3-dioxoisoindolin-5-yl)oxy)acetamide], the Dmax turned out to be 18% and the DC50 was above 10 µM.

Turning to `Cc1ncsc1-c1ccc(CNC(=O)[C@@H]2C[C@@H](O)CN2C(=O)[C@@H](NC(=O)COCCOCCOCCOCCOCCOCCN2CCC(n3cc(-c4cnc(N)c(O[C@H](C)c5c(Cl)ccc(F)c5Cl)c4)cn3)CC2)C(C)(C)C)cc1` [Compound 6, (2S,4R)-1-((S)-23-(4-(4-(6-amino-5-((R)-1-(2,6-dichloro-3-fluorophenyl)ethoxy)pyridin-3-yl)-1H-pyrazol-1-yl)piperidin-1-yl)-2-(tert-butyl)-4-oxo-6,9,12,15,18,21-hexaoxa-3-azatricosanoyl)-4-hydroxy-N-(4-(4-methylthiazol-5-yl)benzyl)pyrrolidine-2-carboxamide], the Dmax was determined as 25% and the DC50 was above 10 µM.

Take `C[C@@H](Oc1cc(-c2cnn(C3CCN(CCNC(=O)COc4cccc5c4C(=O)N(C4CCC(=O)NC4=O)C5=O)CC3)c2)cnc1N)c1c(Cl)ccc(F)c1Cl` (stereo partly drawn) [Compound 8, N-(2-(4-(4-(6-amino-5-((R)-1-(2,6-dichloro-3-fluorophenyl)ethoxy)pyridin-3-yl)-1H-pyrazol-1-yl)piperidin-1-yl)ethyl)-2-((2-(2,6-dioxopiperidin-3-yl)-1,3-dioxoisoindolin-4-yl)oxy)acetamide]: the maximal degradation (Dmax) came out at 12% and the DC50 is above 10 µM.

Take `C[C@@H](Oc1cc(-c2cnn(C3CCN(C4CCC5(CC4)CCN(C(=O)c4ccc6c(c4)C(=O)N(C4CCC(=O)NC4=O)C6=O)CC5)CC3)c2)cnc1N)c1c(Cl)ccc(F)c1Cl` (stereo partly drawn) [Compound 18, 5-(9-(4-(4-(6-amino-5-((R)-1-(2,6-dichloro-3-fluorophenyl)ethoxy)pyridin-3-yl)-1H-pyrazol-1-yl)piperidin-1-yl)-3-azaspiro[5.5]undecane-3-carbonyl)-2-(2,6-dioxopiperidin-3-yl)isoindoline-1,3-dione]: the Dmax came to 80% and the DC50 came to 0.066 µM.

Regarding `Cc1ncsc1-c1ccc(CNC(=O)[C@@H]2C[C@@H](O)CN2C(=O)[C@@H](NC(=O)COCCOCCN2CCC(n3cc(-c4cnc(N)c(O[C@H](C)c5c(Cl)ccc(F)c5Cl)c4)cn3)CC2)C(C)(C)C)cc1` [Compound 2, (2S,4R)-1-((S)-2-(2-(2-(2-(4-(4-(6-amino-5-((R)-1-(2,6-dichloro-3-fluorophenyl)ethoxy)pyridin-3-yl)-1H-pyrazol-1-yl)piperidin-1-yl)ethoxy)ethoxy)acetamido)-3,3-dimethylbutanoyl)-4-hydroxy-N-(4-(4-methylthiazol-5-yl)benzyl)pyrrolidine-2-carboxamide], the greatest degradation seen (Dmax) amounted to 25% and the DC50 was above 10 µM.

As to `C[C@@H](Oc1cc(-c2cnn(C3CCN(CCOCCNC(=O)COc4ccc5c(c4)C(=O)N(C4CCC(=O)NC4=O)C5=O)CC3)c2)cnc1N)c1c(Cl)ccc(F)c1Cl` (stereo partly drawn) [Compound 14, N-(2-(2-(4-(4-(6-amino-5-((R)-1-(2,6-dichloro-3-fluorophenyl)ethoxy)pyridin-3-yl)-1H-pyrazol-1-yl)piperidin-1-yl)ethoxy)ethyl)-2-((2-(2,6-dioxopiperidin-3-yl)-1,3-dioxoisoindolin-5-yl)oxy)acetamide], the maximal degradation (Dmax) was found to be 12% and the DC50 was above 10 µM.

As usually defined, the Dmax is the greatest extent of degradation seen.
